One block for each compound: values may come before it.
Tests used:
Assay type in all cases: physicochemical
[1] = Solvent-mediated transformation test; details: for Crystal form after 1 day / Crystal form after 5 days: stirred at room temperature
Method: Each solvent was added to the Form-I crystal of the compound A, and the mixture was stirred at room temperature for 24 hours, and then, insolubles was filtered to prepare a saturated solution. Mixed crystals (about 10 mg) in which the Form-I crystal and the Form-II crystal were mixed at 1:1 were added to each solution, and the resultant mixture was stirred at room temperature for 5 days. Formed crystals were collected through filtration, and the crystal form thereof was confirmed.

[2] = Crystallization experiments using various solvents, overall outcome; details: operation procedures 1 to 4, Tables 1 to 3
Method: Each of various solvents was added to the Form-I crystal of the present invention (several mg), crystals of the compound A were precipitated according to the following operation procedures, and the crystal form of the precipitated crystals was confirmed. The results of the operation procedures 1 to 3 are shown in Table 1 and Table 2, and the results of the operation procedure 4 are shown in Table 3. The symbol “-” in Table 1 to Table 3 means that no precipitate was obtained.

[3] = Stability test (sealed glass bottle, 90° C.)
Method: The Form-II crystal of the compound A was put in a glass bottle, and the glass bottle was tightly sealed and stored at 90° C. The sample was taken out after 1 day, 3 days, and 7 days, and was dissolved in methanol at a concentration of 1 mg/mL. Each solution was subjected to measurement of analogs by HPLC. As for the crystals after 7 days, the crystal form was confirmed.

[4] = acetone:water 20:80 saturated with Form-I
[5] = acetonitrile saturated with Form-I
[6] = 90° C., after 1 day, tightly sealed glass bottle
[7] = 90° C., after 3 days, tightly sealed glass bottle
[8] = 90° C., after 7 days, tightly sealed glass bottle

thermodynamic stability in solvent ([1]; acetonitrile, ethyl acetate, water-containing acetone at room temperature): thermodynamically stable
crystallization from various solvents (which form crystallizes) [2]: preferentially crystallized
Compound: C[C@H](Nc1cc(-c2cnn(C)c2)cc(Nc2cnccn2)n1)c1ccc(F)cc1.O=C(O)/C=C\C(=O)O [Form-I crystal of the present invention]

Crystal form after 1 day [1, 4]: Form-I
Crystal form after 5 days [1, 4]: Form-I
Crystal form after 1 day [1, 5]: Form-I
Crystal form after 5 days [1, 5]: Form-I
crystal form transformation of mixed crystals ([1]; after 5 days, in acetonitrile, ethyl acetate, and water-containing acetone at room temperature): all transformed to the Form-I crystal
Crystal form after 5 days ([1]; ethyl acetate saturated with Form-I): Form-I
Compound: C[C@H](Nc1cc(-c2cnn(C)c2)cc(Nc2cnccn2)n1)c1ccc(F)cc1.O=C(O)/C=C\C(=O)O [Form-I + Form-II (1:1)]

Appearance [3, 6]: no change
HPLC area (%) [3, 6]: 99.7%
Appearance [3, 7]: no change
HPLC area (%) [3, 7]: 99.8%
Appearance [3, 8]: no change
Crystal form after 7 days [3, 8]: Form-II
HPLC area (%) [3, 8]: 99.6%
Appearance ([3]; Before storage): pale yellow crystal
HPLC area (%) ([3]; Before storage): 99.7%
Compound: C[C@H](Nc1cc(-c2cnn(C)c2)cc(Nc2cnccn2)n1)c1ccc(F)cc1.O=C(O)/C=C\C(=O)O [Form-II]
crystallization from various solvents (which form crystallizes) ([2]; listed as Form-II crystal of the present invention): crystallized only in water-containing systems

— patent US20230250083A1, “CRYSTALS” (NIPPON SHINYAKU CO., LTD., priority 2017, published 2023)
